These results are taken from ChEMBL document CHEMBL6127119 (J Med Chem, 2024).

Data set [1] concerns Staphylococcus aureus. Nature of the data set: Antibacterial activity against vancomycin-intermediate Staphylococcus aureus incubated for 16 to 24 hrs by CLSI based broth microdilution method. Conditions: time 16-24 hrs. Type of data set: functional.
A further data set relates to Escherichia coli. Put plainly: Antibacterial activity against Escherichia coli AB1157 incubated for 16 to 24 hrs by CLSI based broth microdilution method. Type of data set: functional. As to conditions: time 16-24 hrs.
Data set [2] deals with HEK-293T. Put plainly: Cytotoxicity against HEK293T cells at 100 ug/ml incubated for 72 hrs by MTT assay. Type of data set: toxicity, cell-based. As to conditions: human, dose 100 µg/ml.
The test system of the next data set is Pseudomonas aeruginosa. Put plainly: Antibacterial activity against Pseudomonas aeruginosa PAO1 incubated for 16 to 24 hrs by CLSI based broth microdilution method. Type of data set: functional. As to conditions: time 16-24 hrs.
Data set [3] concerns Enterococcus faecium. Nature of the data set: Antibacterial activity against vancomycin-resistant Enterococcus faecium harboring VanB phenotype incubated for 16 to 24 hrs by CLSI based broth microdilution method. Type of data set: functional. Conditions: time 16-24 hrs.
The subject of another data set is Acinetobacter baumannii. Put plainly: Antibacterial activity against Carbapenem-resistant Acinetobacter baumannii clinical isolate incubated for 16 to 24 hrs by CLSI based broth microdilution method. Type of data set: functional. As to conditions: time 16-24 hrs.
The test system of a further data set is Klebsiella pneumoniae. Put plainly: Antibacterial activity against Klebsiella pneumoniae clinical isolate incubated for 16 to 24 hrs by CLSI based broth microdilution method. Type of data set: functional. Conditions: time 16-24 hrs.
Data set [4] has as its system HEK-293T. Put plainly: Cytotoxicity against HEK293T cells upto […] incubated for 72 hrs by MTT assay. Type of data set: toxicity, cell-based. Conditions: human.
Data set [5] concerns Enterococcus faecium. Nature of the data set: Antibacterial activity against vancomycin-resistant Enterococcus faecium harboring VanM phenotype incubated for 16 to 24 hrs by CLSI based broth microdilution method. Type of data set: functional. Conditions: time 16-24 hrs.
The test system of data set [6] is Staphylococcus aureus. Put plainly: Antibacterial activity against methicillin-susceptible Staphylococcus aureus incubated for 16 to 24 hrs by CLSI based broth microdilution method. Type of data set: functional. Conditions: time 16-24 hrs.
Data set [7] has as its system Enterococcus faecium. Nature of the data set: Antibacterial activity against vancomycin-resistant Enterococcus faecium harboring VanA phenotype incubated for 16 to 24 hrs by CLSI based broth microdilution method. As to conditions: time 16-24 hrs. Type of data set: functional.
The test system of the next data set is Enterococcus faecalis. Nature of the data set: Induction of inner membrane permeabilization in Enterococcus faecalis ATCC29212 at […] measured for 20 mins by DiSC3(5) staining based analysis. Type of data set: functional, organism-based. Conditions: dose 128.0 µg/ml.
The test system of data set [8] is Staphylococcus aureus. Put plainly: Post-antibiotic effect in Staphylococcus aureus MRSA252 assessed as change in bacterial titer at 10 times measured after 2 hrs. Type of data set: functional.
The test system of data set [9] is Staphylococcus aureus. Nature of the data set: Antibacterial activity against Staphylococcus aureus Mu50 assessed as fold decrease in MIC at 1:1 ratio of compound and Ac2KAA at […] incubated for 16 to 24 hrs by absorbance based assay relative to control. Type of data set: functional. As to conditions: dose 128 µg/ml; time 16-24 hrs.
Data set [10] deals with Staphylococcus aureus. Nature of the data set: Induction of drug resistance in vancomycin-sensitive Staphylococcus aureus MRSA252 assessed as fold increase in MIC measured after 16 days of serial passages by broth microdilution method. As to conditions: time 16 day. Type of data set: functional.
Data set [11] in a line: AUC (infinity) in CD-1 mouse at 10 mg/kg, iv measured for 24 hrs by UPLC analysis. Type of data set: ADME, organism-based. As to conditions: in vivo.
A short description of data set [12]: AUClast in CD-1 mouse at 10 mg/kg, iv measured for 24 hrs by UPLC analysis. Type of data set: ADME, organism-based. As to conditions: in vivo.
Data set [13] in a line: Toxicity in BALB/c mouse infected with methicillin-resistant Staphylococcus aureus MRSA252 assessed as survival rate at 20 mg/kg, iv for 7 days. Type of data set: organism-based. Conditions: in vivo, 168 h, time 7 day.
The subject of data set [14] is Staphylococcus aureus. Nature of the data set: Post-antibiotic effect in Staphylococcus aureus MRSA252 assessed as time of effect at 10 to 20 times. Type of data set: functional.
Data set [15] in a line: Volume of distribution at steady state in CD-1 mouse at 10 mg/kg, iv measured for 24 hrs by UPLC analysis. Type of data set: ADME, organism-based. As to conditions: in vivo, read-out: Vdss.
Data set [16] has as its system Staphylococcus aureus. Nature of the data set: Antibacterial activity against Staphylococcus aureus Mu50 at 1:1 ratio of compound and Ac2KAA at […] incubated for 16 to 24 hrs by absorbance based assay. Type of data set: functional.
Data set [17] in a line: Half life in CD-1 mouse at 10 mg/kg, iv measured for 24 hrs by UPLC analysis. As to conditions: in vivo. Type of data set: ADME, organism-based.
Data set [18] can be described thus: Toxicity in BALB/c mouse infected with methicillin-resistant Staphylococcus aureus MRSA252 assessed as survival rate at 10 mg/kg, iv for 7 days. Type of data set: organism-based. As to conditions: in vivo, 168 h, time 7 day.
The nature of data set [19]: MRT (infinity) in CD-1 mouse at 10 mg/kg, iv measured for 24 hrs by UPLC analysis. Type of data set: ADME, organism-based. As to conditions: in vivo.
The test system of data set [20] is Staphylococcus aureus. Put plainly: Induction of cytoplasmic membrane permeabilization in methicillin-resistant Staphylococcus aureus MRSA252 at […] measured for 40 mins by PI/NPN staining based analysis. Type of data set: functional, organism-based. As to conditions: dose 128.0 µg/ml.
Data set [21] deals with Staphylococcus aureus. Nature of the data set: Post-antibiotic effect in Staphylococcus aureus MRSA252 assessed as change in bacterial titer at 20 times measured after 2 hrs. Type of data set: functional.
The nature of data set [22]: Clearance in CD-1 mouse at 10 mg/kg, iv measured for 24 hrs by UPLC analysis. Conditions: in vivo. Type of data set: ADME, organism-based.

Molecules are shown by their SMILES. Converted amounts (≈) assume the structure as drawn. The source made the active and inactive calls. The rule behind the calls is not given here. Some results are limits rather than exact numbers.

Take `CN[C@H](CC(C)C)C(=O)N[C@H]1C(=O)N[C@@H](CC(N)=O)C(=O)N[C@H]2C(=O)N[C@H]3C(=O)N[C@H](C(=O)N[C@H](C(=O)NCCCCCCCCNC(=N)N)c4cc(O)cc(O)c4-c4cc3ccc4O)[C@H](O)c3ccc(c(Cl)c3)Oc3cc2cc(c3O[C@@H]2O[C@H](CO)[C@@H](O)[C@H](O)[C@H]2O[C@H]2C[C@](C)(N)[C@H](O)[C@H](C)O2)Oc2ccc(cc2Cl)[C@H]1O`: the MIC against Staphylococcus aureus [1] was determined as 1 µg/mL (≈ 0.618 µM); with Escherichia coli it was 16 µg/mL (≈ 9.89 µM); in the data set on Pseudomonas aeruginosa it was 128 µg/mL (≈ 79.1 µM); with Enterococcus faecium [3], 8 µg/mL (≈ 4.95 µM); with Acinetobacter baumannii, 32 µg/mL (≈ 19.8 µM); against Klebsiella pneumoniae, 128 µg/mL (≈ 79.1 µM). The MIC was 16 µg/mL (≈ 9.89 µM) against Enterococcus faecium [5], 0.25 µg/mL (≈ 0.155 µM) in the data set with Staphylococcus aureus [6] and 8 µg/mL (≈ 4.95 µM) with Enterococcus faecium [7]. The Activity result in the data set with HEK-293T [2] and in the data set on HEK-293T [4] was “Non-Toxic” each time.
Turning to `CC(C)C[C@@H](N)C(=O)N[C@H]1C(=O)N[C@@H](CC(N)=O)C(=O)N[C@H]2C(=O)N[C@H]3C(=O)N[C@H](C(=O)N[C@H](C(=O)O)c4cc(O)cc(O)c4-c4cc3ccc4O)[C@H](O)c3ccc(c(Cl)c3)Oc3cc2cc(c3O[C@@H]2O[C@H](CO)[C@@H](O)[C@H](O)[C@H]2O[C@H]2C[C@](C)(N)[C@H](O)[C@H](C)O2)Oc2ccc(cc2Cl)[C@H]1O`, the MIC against Staphylococcus aureus [1] was 2 µg/mL (≈ 1.39 µM); with Escherichia coli, above 128 µg/mL; in the data set with Pseudomonas aeruginosa, above 128 µg/mL; with Enterococcus faecium [3], 128 µg/mL (≈ 89.2 µM); against Acinetobacter baumannii, above 128 µg/mL; in the data set with Klebsiella pneumoniae, above 128 µg/mL. The MIC was above 128 µg/mL in the data set with Staphylococcus aureus [16], 128 µg/mL (≈ 89.2 µM) against Enterococcus faecium [5], 0.5 µg/mL (≈ 0.348 µM) with Staphylococcus aureus [6] and above 128 µg/mL against Enterococcus faecium [7]. Further, the result in the data set on Enterococcus faecalis and in the data set with Staphylococcus aureus [20] was inactive. For the same molecule, the Activity in the data set with Staphylococcus aureus [8] turned out to be 1 log10CFU/ml; in data set [13], 62.5%; in data set [18] it was 75%; in the data set with Staphylococcus aureus [21] it was 0.2 log10CFU/ml. Besides, the “fold change (FC)” value in the data set with Staphylococcus aureus [9] is reported as above 32; in the data set on Staphylococcus aureus [10], 4. In data set [11], this molecule returned an AUC(0-inf) of 6300 ng·h/mL. This molecule returned an AUC(0-t) at 24 h in data set [12] of 5210 ng·h/mL. Moreover, in the data set on Staphylococcus aureus [14], the Time turned out to be 1 h. Also, in data set [15], the Vd worked out at 0.919 L/kg. The same molecule showed a half-life in data set [17] of 31.8 min. This molecule returned an MRT inf in [19] of 33.6 min. The molecule further gave a clearance in [22] of 27.3 mL/min/kg.
Consider `CCCCCCCCCC(=O)N[C@@H](Cc1c[nH]c2ccccc12)C(=O)N[C@@H](CC(N)=O)C(=O)N[C@@H](CC(=O)O)C(=O)N[C@@H]1C(=O)NCC(=O)N[C@@H](CCCN)C(=O)N[C@@H](CC(=O)O)C(=O)N[C@H](C)C(=O)N[C@@H](CC(=O)O)C(=O)NCC(=O)N[C@H](CO)C(=O)N[C@@H]([C@@H](C)CC(=O)O)C(=O)N[C@@H](CC(=O)c2ccccc2N)C(=O)O[C@@H]1C`, for which the MIC with Staphylococcus aureus [1] is 4 µg/mL (≈ 2.47 µM); with Escherichia coli it was 128 µg/mL (≈ 79 µM); in the data set with Pseudomonas aeruginosa, above 128 µg/mL; against Enterococcus faecium [3], 8 µg/mL (≈ 4.94 µM); against Acinetobacter baumannii, 128 µg/mL (≈ 79 µM); with Klebsiella pneumoniae, above 128 µg/mL. Besides, the MIC in the data set on Enterococcus faecium [5] was 8 µg/mL (≈ 4.94 µM); in the data set on Staphylococcus aureus [6], 2 µg/mL (≈ 1.23 µM); with Enterococcus faecium [7], 8 µg/mL (≈ 4.94 µM). In addition, the “fold change (FC)” value in the data set on Staphylococcus aureus [10] is 8.
